Data as given in US20200376035A1, “METHODS AND COMPOSITIONS COMPRISING CART AND A SMAC MIMETIC” (THE TRUSTEES OF THE UNIVERSITY OF PENNSYLVANIA, priority 2018, published 2020).
*1 amine or outer side, *2 acyl side, *3 side chain or, on linkers, in order; H or OH if unused. Where a SMILES comes first, the peptide text is derived from it. Bridges are numbered along the chain shown (N, C = ends). Roman numbers before positions name the chains, in order. [ ]: non-standard residue; d: D form. Hexamethylenediamine = C(CCCN[*:2])CCN[*:1]; Dip = N[C@H](C(=O)O)C(c1ccccc1)c1ccccc1; Chg = N[C@H](C(=O)O)C1CCCCC1; NMeA = CN[C@@H](C)C(=O)O

Tests used:
[1] = test system: HER2+ human ovarian cancer cell line (SKOV3); assay: SMAC mimetics with anti-HER2 CAR T (4D5) against SKOV3, luminescence and XCelligence; assay type: cell-based; details: SKOV3 + anti-HER2 CAR T (4D5), 50 nM drug vs DMSO
Experimental: FIGS. 12A-12B illustrate the synergistic killing of solid tumors using CAR cells in combination with SMAC mimetics. […] E:T ratio=0.01:1, [Drug]=50 nM. 24 h co-culture, A human ovarian cell line expressing endogenous HER2 and luciferase reporter (SKOV3 CBG-T2A-GFP) was seeded at density of 10^4 cells/100 μl of media in each well of 96 well plate and grown overnight. Next day, CAR T cells (4D5; Liu et al. Cancer Research 2015; (75)(17):3596-607, incorporated by reference herein in its entirety) were introduced at E:T ratio=0.01:1 50 nM of SMAC mimetics or corresponding amounts of DMSO. After 48 hours, luciferin was added to the cells and luminescence was detected using a luminometer (Biotek Synergy H4). Tumor killing was calculated using the formula: (sample-tumor treated with DMSO)/(lysis control-tumor treated with DMSO). A human ovarian adenocarcinoma cell line (SKOV3) expressing endogenous HER2 was cultured in the presence or absence of human T cells expressing a chimeric antigen receptor against HER2 at a 1:1 CART:Tumor ratio. Cells were treated with 50 nM of birinapant ([…]), BV6, AZD5582 or corresponding amounts of DMSO. Tumor killing was monitored in real-time using the impedance-based […]@ system (ACEA Biosciences, Inc).

[2] = test system: CD19+ Luc+ NALM-6 leukemia cell line; assay: High-throughput screen of small molecule library for CART-enhancing compounds (luminescence, 48 hours); assay type: cell-based, human; details: for effect on CART killing activity in the screen: NALM-6 + CART19, 0.3:1 E:T ratio
Experimental: FIG. 6 illustrates a high-throughput platform to identify CART-enhancing bioactive compounds. The CD19+ Luc+ NALM-6 leukemia cell line was plated at 0.3:1 E:T ratio+/− CART19 using an automated dispenser, Small molecules from a custom-made library (SelleckChem) were then added via an automated workstation and luminescence was detected after 48 hours with a high-throughput plate reader.
FIG. 7 illustrates that birinapant enhances CART cell cytotoxicity. Screening results: total cytotoxicity (%) of small molecules alone (Y axis) or in combination with CART (X axis). Birinapant is represented by the dot at the “40” mark on the X axis (●).
An unbiased, reliable, automated, high-throughput system was generated to test thousands of different combinations of CART and small molecules. […] Subsequently, 2,615 different small molecules were added (1 per well). More than half of these drugs are FDA-approved. After 48 hours, tumor luminescence was recorded and percentage tumor killing was calculated. This platform has already generated several significant hits. See FIG. 7, birinapant in grey, represented by the dot at the “40” mark on the X axis (●). Thus, small molecules enhancing CART killing can be identified.
Birinapant was the only SMAC mimetic in the library.

[3] = test system: human pre-B ALL cell line (NALM6 CBG-T2A-GFP); assay: CART19 (CTL019) killing of NALM6 with birinapant, luciferase readout after 72 hours; assay type: cell-based; details: NALM6 + CTL019 at different ratios, different doses of birinapant vs DMSO
Experimental: FIG. 1A is a graph showing the percentage of tumor killing by CART as a result of increasing concentrations of birinapant or corresponding amounts of DMSO as a control. FIG. 1B is a graph showing the percentage of tumor killing by CART as a function of CART:Tumor ratio. For FIGS. 1A-1B, a human pre-B ALL cell line expressing endogenous CD19 and a luciferase reporter (NALM6 CBG-T2A-GFP) was cultured in the presence or absence of human T cells expressing a chimeric antigen receptor against CD19 (CTL019, KYMRIAH®) at different ratios. Cells were treated with different doses of birinapant (TL32711, Medivir) or corresponding amounts of DMSO. After 72 hours luciferin was added to the cells and luminescence was detected using a luminometer (Biotek Synergy H4). Tumor killing was calculated using the formula: (sample−tumor treated with DMSO)/(lysis control−tumor treated with DMSO). […]
A human pre-B ALL cell line expressing endogenous CD19 and a luciferase reporter (NALM6 CBG-T2A-GFP) was cultured in the presence or absence of human T cells expressing a chimeric antigen receptor against CD19 (CTL019, KYMRIAH®) at different ratios. […] After 72 hours luciferin was added to the cells and luminescence was detected using a luminometer (Biotek Synergy H4). Tumor killing was calculated using the formula: (sample−tumor treated with DMSO)/(lysis control−tumor treated with DMSO). […]

[4] = test system: human pre-B ALL cell line (NALM6 CBG-T2A-GFP); assay: Birinapant-enhanced CART19 killing of NALM6 with TNF antibodies, 72 hours; assay type: cell-based; details: NALM6 + CTL019, 1 μM birinapant with isotype control or TNF antibodies
Experimental: (§1) A human pre-B ALL cell line expressing endogenous CD19 and a luciferase reporter (NALM6 CBG-T2A-GFP) was cultured in the presence or absence of human T cells expressing a chimeric antigen receptor against CD19 (CTL019, KYMRIAH®). Cells were either treated with 1 μM of birinapant (TL32711, Medivir), corresponding amounts of DMSO or 1 μM birinapant (TL32711, Medivir) in combination with different amounts of isotype control or TNF antibodies. After 72 hours, luciferin was added to the cells and luminescence was detected using a luminometer (Biotek Synergy H4), Tumor killing was calculated using the formula: (sample−tumor treated with DMSO)/(lysis control−tumor treated with DMSO).
as §1, with “μM” for “μM of”, “and” for “in combination with”, “H4).” for “H4),”

[5] = test system: human ovarian adenocarcinoma cell line (SKOV3); assay: Anti-HER2 CART (CAR 4D5) killing of SKOV3 with birinapant, impedance-based XCelligence; assay type: cell-based; details: SKOV3 + CAR 4D5, 1:1 CART:Tumor ratio, different doses of birinapant vs DMSO, real-time impedance
Experimental: FIG. 2A is a graph showing the growth and clearance of tumor cells over time. At approximately 21 h (vertical line) tumor cells were treated with only Birinapant (solid lines) or Birinapant and CART cells (dotted lines, 1:1 CART:Tumor ratio). FIG. 2B is analogous to FIG. 2A except for the addition of DMSO instead of Birinapant. FIGS. 2C and 2D summarize the results of FIGS. 2A and 2B, respectively (10 nM Birinapant or DMSO). For FIGS. 2A-2D, a human ovarian adenocarcinoma cell line (SKOV3) expressing endogenous HER2 was cultured in the presence or absence of human T cells expressing a chimeric antigen receptor against HER2 (CAR 4D5) at a 1:1 CART:Tumor ratio, Cells were treated with different doses of birinapant (TL32711, Medivir) or corresponding amounts of DMSO. Tumor killing was monitored in real-time using the impedance-based XCelligence® system (ACEA Biosciences, Inc),
A human ovarian adenocarcinoma cell line (SKOV3) expressing endogenous HER2 was cultured in the presence or absence of human T cells expressing a chimeric antigen receptor against HER2 (CAR 4D5; Liu et al. Cancer Research 2015; (7517):3596-607, incorporated by reference herein in its entirety) at a 1:1 CART:Tumor ratio. […] Tumor killing was monitored in real-time using the impedance-based XCelligence® system (ACEA Biosciences, Inc).

SMILES	CART killing of solid tumor cell lines [1]	effect on CART killing activity in the screen [2]	further results
CN[C@@H](C)C(=O)N[C@H](C(=O)N1CCC[C@H]1C(=O)N[C@H]1c2ccccc2C[C@H]1OCC#CC#CCO[C@@H]1Cc2ccccc2[C@@H]1NC(=O)[C@@H]1CCCN1C(=O)[C@@H](NC(=O)[C@H](C)NC)C1CCCCC1)C1CCCCC1 [AZD5582, (2S,2′S)-N,N′-((S,1′S,2R,2′R)-(hexa-2,4-diyne-1,6-diylbis(oxy))bis(2,3-dihydro-1H-indene-2,1-diyl))bis(1-((S)-2-cyclohexyl-2-((S)-2-(methylamino)propanamido)acetyl)pyrrolidine-2-carboxamide)]	enhance CART killing of solid tumor cell lines	–	–
CN[C@@H](C)C(=O)N[C@H](C(=O)N1CCC[C@H]1C(=O)N[C@H](C(=O)NCCCCCCNC(=O)[C@@H](NC(=O)[C@@H]1CCCN1C(=O)[C@@H](NC(=O)[C@H](C)NC)C1CCCCC1)C(c1ccccc1)c1ccccc1)C(c1ccccc1)c1ccccc1)C1CCCCC1 [BV6, ((S,S,2S,2′S)-N,N′-((2S,2′S)-(hexane-1,6-diylbis(azanediyl))bis(3-oxo-1,1-diphenylpropane-3,2-diyl))bis(1-((S)-2-cyclohexyl-2-((S)-2-(methylamino)propanamido)acetyl)pyrrolidine-2-carboxamide))] (I: H-[NMeA][Chg]P[Dip] / II: H-[NMeA][Chg]P[Dip]; linker I:C-II:C via Hexamethylenediamine)	enhance CART killing of solid tumor cell lines	–	–
CCCCCCCCCCCC1=C(O)C(=O)C=C(O)C1=O [Embelin, 2,5-Dihydroxy-3-undecyl-2,5-cyclohexadiene-1,4-dione]	–	Neither Embelin nor GDC-0152 revealed a significant effect on CART killing activity	–
CN[C@@H](C)C(=O)N[C@H](C(=O)N1CCC[C@H]1C(=O)Nc1snnc1-c1ccccc1)C1CCCCC1 [GDC-0152, (S)-1-((S)-2-cyclohexyl-2-((S)-2-(methylamino)propanamido)acetyl)-N-(4-phenyl-1,2,3-thiadiazol-5-yl)pyrrolidine-2-carboxamide]	–	Neither Embelin nor GDC-0152 revealed a significant effect on CART killing activity	–
CC[C@H](NC(=O)[C@H](C)NC)C(=O)N1C[C@@H](O)C[C@H]1Cc1c(-c2[nH]c3cc(F)ccc3c2C[C@@H]2C[C@H](O)CN2C(=O)[C@H](CC)NC(=O)[C@H](C)NC)[nH]c2cc(F)ccc12 [birinapant, (2S)-N-[(2S)-1-[(2R,4S)-2-[[6-fluoro-2-[6-fluoro-3-[[(2R,4S)-4-hydroxy-1-[(2S)-2-[[(2S)-2-(methylamino)propanoyl]amino]butanoyl]pyrrolidin-2-yl]methyl]-1H-indol-2-yl]-1H-indol-3-yl]methyl]-4-hydroxypyrrolidin-1-yl]-1-oxobutan-2-yl]-2-(methylamino)propanamide]	enhance CART killing of solid tumor cell lines	–	CART killing of leukemic cell lines [3]: enhances CART killing of leukemic cell lines; TNF dependence of enhanced CART killing of tumor [4]: birinapant-enhanced CART killing of tumor is TNF-dependent; CART killing of solid tumor cell lines [5]: enhances CART killing of solid tumor cell lines; total cytotoxicity (%) of small molecules in combination with CART (X axis) ([2]; FIG. 7, NALM-6 + CART19, 0.3:1 E:T ratio): 40%
